We go through 19 compounds from PubChem BioAssay AID602131 (Sanford-Burnham Center for Chemical Genomics, 2011).

Broadly, the IC50 is the point on the concentration scale where inhibition reaches its midpoint.

Active and inactive are the calls of the source.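 The calls were made as follows: active = IC50 at or below 20 µM; inactive = the rest.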 Bounds are passed on as bounds.

For this test, the target named is glucose-6-phosphate dehydrogenase-6-phosphogluconolactonase (PfGluPho), Plasmodium falciparum 3D7. Briefly: inhibition of P. falciparum G6PD-lactonase – biochemical, fluorescence intensity, dose response, set 3, SAR follow-up (AID 602131). The following applies: recombinant PfGluPho, NADPH resazurin-diaphorase fluorescence.
Turning to `CN(C)c1ccccc1CNC(=O)c1ccc2c(c1)NC(=O)/C(=C/c1ccccc1F)S2`, the IC50 was > 80 µM (inactive).
With `O=C(NCCN1CCOCC1)c1ccc2c(c1)NC(=O)c1ccccc1S2` the figure was > 80 µM (inactive); with `NC1CCN(C(=O)c2ccc3c(c2)NC(=O)c2ccccc2S3)C1` (centres undefined), > 80 µM (inactive).
On to `CCN1CCCC1CNC(=O)c1ccc2c(c1)NC(=O)C(Cc1ccccc1F)S2` (centres undefined), for which the IC50 is > 80 µM (inactive).
To `O=C(NCCN1CCCCC1)c1ccc2c(c1)NC(=O)c1ccccc1S2` belongs “inactive”.
With `CCN1CCC[C@@H]1CNC(=O)c1ccc2c(c1)NC(=O)c1ccccc1S2` the figure was 5.05 µM; with `CCN1CCC[C@H]1CNC(=O)c1ccc2c(c1)NC(=O)/C(=C/c1ccccc1F)S2`, 6.59 µM.
For `CCN(CC)CCNC(=O)c1ccc2c(c1)NC(=O)/C(=C/c1ccccc1F)S2`, the IC50 was 6.86 µM.
With `CCN1CCC[C@H]1CNC(=O)c1ccc2c(c1)NC(=O)c1ccccc1S2` the entry was “inactive”; with `CCN1CCCC1CNC(=O)c1ccc2c(c1)NC(=O)/C(=C/c1ccc3ccccc3c1)S2` (centres undefined), 2.39 µM.
To `CCC(C)N1CCCC1CNC(=O)c1ccc2c(c1)NC(=O)c1ccccc1S2` (centres undefined) belongs 9.23 µM; to `NCCNC(=O)c1ccc2c(c1)NC(=O)c1ccccc1S2`, > 80 µM (inactive).
To `NC1CCN(C(=O)c2ccc3c(c2)NC(=O)/C(=C/c2ccccc2F)S3)C1` (centres undefined) belongs “inactive”.
On to `CCN(CC)CCCC(C)Nc1ccnc2cc(Cl)ccc12` (centres undefined), for which the IC50 is > 80 µM (inactive).
As to `CC(C)(C)OC(=O)N1CCCC1CNC(=O)c1ccc2c(c1)NC(=O)/C(=C/c1ccccc1F)S2` (centres undefined), the IC50 was > 80 µM (inactive).
With `CCN1CCC[C@@H]1CNC(=O)c1ccc2c(c1)NC(=O)/C(=C/c1ccccc1F)S2` the figure was 0.889 µM.
Turning to `CCN1CCCC1CNC(=O)c1ccc2c(c1)NC(=O)/C(=C/c1ccc(F)cc1)S2` (centres undefined), the half-maximal inhibitory concentration (IC50) was 1.41 µM.
To `CCC(C)N(CCNC(=O)c1ccc2c(c1)NC(=O)c1ccccc1S2)C1CCCCC1` (centres undefined) belongs 14.1 µM; to `O=C(NCCNC1CCCCC1)c1ccc2c(c1)NC(=O)c1ccccc1S2`, “inactive”.
